Reference: the supplement of paper PMC10307832

How the values were obtained:
Assay in all cases: relative viability (nuclei count vs DMSO), 5 days (fraction); higher = more cells survive
HCC-78 = system: HCC-78
How it was run: (§1)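 The day after seeding in 1536-well plates, lung cancer cell lines were treated by pin tool with a single drug, or with a fixed anchor-drug dose together with five library-drug doses (not always all listed) in √10 steps. After 5 days, a combined fix-and-stain solution (final 0.05% Triton X-100, 1% formaldehyde, 1 ug/ml Hoechst) was added. Nuclei counted on 4× images gave relative viability as treated counts over vehicle counts, reported as the median of duplicate plates.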

NCI-H2170 = system: NCI-H2170
How it was run: as §1

NCI-H2228 = system: NCI-H2228
How it was run: as §1

NCI-H1734 = system: NCI-H1734
How it was run: as §1

RERF-LC-KJ = system: RERF-LC-KJ
How it was run: as §1

UMC-11 = system: UMC-11
How it was run: as §1

NCI-H2405 = system: NCI-H2405
How it was run: as §1

NCI-H1944 = system: NCI-H1944
How it was run: as §1

PC-3 [JPC-3] = system: PC-3 [JPC-3]
How it was run: as §1

NCI-H460 = system: NCI-H460
How it was run: as §1

NCI-H3122 = system: NCI-H3122
How it was run: as §1

NCI-H1651 = conditions: first compound 0.04 µM
How it was run: as §1

For `COc1cc(N2CCC(C(N)=O)CC2)ccc1Nc1nc(N)c(Cl)c(Nc2ccccc2S(=O)(=O)C(C)C)n1` [HG-5-88-01] + CS(=O)(=O)CCNCc1ccc(-c2ccc3ncnc(Nc4ccc(OCc5cccc(F)c5)c(Cl)c4)c3c2)o1 [Lapatinib] (partner 2 µM), the relative viability (HCC-78; first compound 0.04 µM) was 0.737, the relative viability (HCC-78; first compound 0.1265 µM) was 0.465 and the relative viability (HCC-78; first compound 0.4 µM) was 0.223. For the same molecule, the relative viability (HCC-78; first compound 1.265 µM) was 0.264, the relative viability (HCC-78; first compound 4 µM) was 0.226 and the relative viability (NCI-H2170; first compound 0.04 µM) was 0.247. The relative viability (NCI-H2170; first compound 0.1265 µM) was 0.275, the relative viability (NCI-H2170; first compound 0.4 µM) was 0.251 and the relative viability (NCI-H2170; first compound 1.265 µM) was 0.267. The relative viability (NCI-H2170; first compound 4 µM) was 0.251, the relative viability (NCI-H2228; first compound 0.04 µM) was 0.322 and the relative viability (NCI-H2228; first compound 0.1265 µM) was 0.264. It also gave a relative viability (NCI-H2228; first compound 0.4 µM) of 0.394, a relative viability (NCI-H2228; first compound 1.265 µM) of 0.409 and a relative viability (NCI-H2228; first compound 4 µM) of 0.356. The relative viability (NCI-H1734; first compound 0.04 µM) was 1, the relative viability (NCI-H1734; first compound 0.1265 µM) was 1.08 and the relative viability (NCI-H1734; first compound 0.4 µM) was 1.02. The relative viability (NCI-H1734; first compound 1.265 µM) was 0.982, the relative viability (NCI-H1734; first compound 4 µM) was 0.969 and the relative viability (RERF-LC-KJ; first compound 0.04 µM) was 0.833. It also gave a relative viability (RERF-LC-KJ; first compound 0.1265 µM) of 0.774, a relative viability (RERF-LC-KJ; first compound 0.4 µM) of 0.826 and a relative viability (RERF-LC-KJ; first compound 1.265 µM) of 0.876. The relative viability (RERF-LC-KJ; first compound 4 µM) was 0.839, the relative viability (UMC-11; first compound 0.04 µM) was 0.84 and the relative viability (UMC-11; first compound 0.1265 µM) was 1.13. The relative viability (UMC-11; first compound 0.4 µM) was 0.837, the relative viability (UMC-11; first compound 1.265 µM) was 0.927 and the relative viability (UMC-11; first compound 4 µM) was 0.632. The relative viability (NCI-H2405; first compound 0.04 µM) was 1.25, the relative viability (NCI-H2405; first compound 0.1265 µM) was 1.14 and the relative viability (NCI-H2405; first compound 0.4 µM) was 0.992. It also gave a relative viability (NCI-H2405; first compound 1.265 µM) of 0.894, a relative viability (NCI-H2405; first compound 4 µM) of 0.865 and a relative viability (NCI-H1944; first compound 0.04 µM) of 0.656. It also gave a relative viability (NCI-H1944; first compound 0.1265 µM) of 0.84, a relative viability (NCI-H1944; first compound 0.4 µM) of 0.78 and a relative viability (NCI-H1944; first compound 1.265 µM) of 0.861. The relative viability (NCI-H1944; first compound 4 µM) was 0.648, the relative viability (PC-3 [JPC-3]; first compound 0.04 µM) was 0.408 and the relative viability (PC-3 [JPC-3]; first compound 0.1265 µM) was 0.466. It also gave a relative viability (PC-3 [JPC-3]; first compound 0.4 µM) of 0.39, a relative viability (PC-3 [JPC-3]; first compound 1.265 µM) of 0.434 and a relative viability (PC-3 [JPC-3]; first compound 4 µM) of 0.25. For the same molecule, the relative viability (NCI-H460; first compound 0.04 µM) was 0.963, the relative viability (NCI-H460; first compound 0.1265 µM) was 0.981 and the relative viability (NCI-H460; first compound 0.4 µM) was 0.871. It also gave a relative viability (NCI-H460; first compound 1.265 µM) of 0.996, a relative viability (NCI-H460; first compound 4 µM) of 0.302 and a relative viability (NCI-H3122; first compound 0.04 µM) of 0.763. For the same molecule, the relative viability (NCI-H3122; first compound 0.1265 µM) was 0.357, the relative viability (NCI-H3122; first compound 0.4 µM) was 0.281 and the relative viability (NCI-H3122; first compound 1.265 µM) was 0.221. It also gave a relative viability (NCI-H3122; first compound 4 µM) of 0.2 and a relative viability (NCI-H1651) of 0.955.
